Columns and labels:
Experiment in all cases: relative viability (nuclei count vs DMSO), 5 days (fraction); higher = more cells survive
COR-L 105 = tested on: COR-L 105
Method in brief: (§1)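 Cells from lung cancer lines were seeded into 1536-well plates and, one day later, dosed by pin tool. Treatments were either a single drug or a fixed dose of an anchor drug with five library-drug doses (not always all listed) in √10 steps. After 5 days, nuclei were stained in a one-step fixation (final 0.05% Triton X-100, 1% formaldehyde, 1 ug/ml Hoechst) and counted on 4× images, and relative viability is the treated-to-vehicle nuclei ratio, as the median of duplicate plates.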

RERF-LC-KJ = tested on: RERF-LC-KJ
Method in brief: as §1

ChaGo-K-1 = tested on: ChaGo-K-1
Method in brief: as §1

NCI-H2126 = tested on: NCI-H2126
Method in brief: as §1

NCI-H647 = tested on: NCI-H647
Method in brief: as §1

PC-14 = tested on: PC-14
Method in brief: as §1

NCI-H23 = tested on: NCI-H23
Method in brief: as §1

NCI-H1666 = tested on: NCI-H1666
Method in brief: as §1

201T = tested on: 201T
Method in brief: as §1

LC-2-ad = tested on: LC-2-ad
Method in brief: as §1

H3255 = tested on: H3255
Method in brief: as §1

HCC-78 = tested on: HCC-78
Method in brief: as §1

NCI-H522 = tested on: NCI-H522
Method in brief: as §1

HCC-827 = tested on: HCC-827
Method in brief: as §1

NCI-H661 = tested on: NCI-H661
Method in brief: as §1

NCI-H2087 = tested on: NCI-H2087
Method in brief: as §1

NCI-H2347 = tested on: NCI-H2347
Method in brief: as §1

NCI-H322M = tested on: NCI-H322M
Method in brief: as §1

NCI-H650 = tested on: NCI-H650
Method in brief: as §1

LCLC-97TM1 = tested on: LCLC-97TM1
Method in brief: as §1

NCI-H1915 = tested on: NCI-H1915
Method in brief: as §1

NCI-H2405 = tested on: NCI-H2405
Method in brief: as §1

EPLC-272H = tested on: EPLC-272H
Method in brief: as §1

NCI-H520 = tested on: NCI-H520
Method in brief: as §1

Clc1ccc(Nc2nnc(Cc3ccncc3)c3ccccc23)cc1 [Vatalanib] + Cc1cc(Nc2cc(N3CCN(C)CC3)nc(Sc3ccc(NC(=O)C4CC4)cc3)n2)n[nH]1 [Tozasertib] (partner 0.1 µM)
relative viability (COR-L 105; first compound 0.04 µM): 0.339
relative viability (COR-L 105; first compound 0.1265 µM): 0.344
relative viability (COR-L 105; first compound 0.4 µM): 0.451
relative viability (COR-L 105; first compound 1.265 µM): 0.35
relative viability (COR-L 105; first compound 4 µM): 0.362
relative viability (RERF-LC-KJ; first compound 0.04 µM): 0.602
relative viability (RERF-LC-KJ; first compound 0.1265 µM): 0.555
relative viability (RERF-LC-KJ; first compound 0.4 µM): 0.511
relative viability (RERF-LC-KJ; first compound 1.265 µM): 0.454
relative viability (RERF-LC-KJ; first compound 4 µM): 0.436
relative viability (ChaGo-K-1; first compound 0.04 µM): 0.241
relative viability (ChaGo-K-1; first compound 0.1265 µM): 0.231
relative viability (ChaGo-K-1; first compound 0.4 µM): 0.242
relative viability (ChaGo-K-1; first compound 1.265 µM): 0.235
relative viability (ChaGo-K-1; first compound 4 µM): 0.235
relative viability (NCI-H2126; first compound 0.04 µM): 0.808
relative viability (NCI-H2126; first compound 0.1265 µM): 0.769
relative viability (NCI-H2126; first compound 0.4 µM): 0.829
relative viability (NCI-H2126; first compound 1.265 µM): 0.805
relative viability (NCI-H2126; first compound 4 µM): 0.82
relative viability (NCI-H647; first compound 0.04 µM): 0.3
relative viability (NCI-H647; first compound 0.1265 µM): 0.262
relative viability (NCI-H647; first compound 0.4 µM): 0.352
relative viability (NCI-H647; first compound 1.265 µM): 0.26
relative viability (NCI-H647; first compound 4 µM): 0.259
relative viability (PC-14; first compound 0.04 µM): 0.625
relative viability (PC-14; first compound 0.1265 µM): 0.523
relative viability (PC-14; first compound 1.265 µM): 0.51
relative viability (PC-14; first compound 4 µM): 0.592
relative viability (NCI-H23; first compound 0.04 µM): 0.435
relative viability (NCI-H23; first compound 0.1265 µM): 0.373
relative viability (NCI-H23; first compound 0.4 µM): 0.364
relative viability (NCI-H23; first compound 1.265 µM): 0.314
relative viability (NCI-H23; first compound 4 µM): 0.578
relative viability (NCI-H1666; first compound 0.04 µM): 0.617
relative viability (NCI-H1666; first compound 0.1265 µM): 0.569
relative viability (NCI-H1666; first compound 0.4 µM): 0.615
relative viability (NCI-H1666; first compound 1.265 µM): 0.568
relative viability (NCI-H1666; first compound 4 µM): 0.55
relative viability (201T; first compound 0.04 µM): 0.932
relative viability (201T; first compound 0.1265 µM): 0.943
relative viability (201T; first compound 0.4 µM): 0.985
relative viability (201T; first compound 1.265 µM): 0.896
relative viability (201T; first compound 4 µM): 0.916
relative viability (LC-2-ad; first compound 0.04 µM): 0.53
relative viability (LC-2-ad; first compound 0.1265 µM): 0.385
relative viability (LC-2-ad; first compound 1.265 µM): 0.469
relative viability (LC-2-ad; first compound 4 µM): 0.425
relative viability (H3255; first compound 0.04 µM): 0.626
relative viability (H3255; first compound 0.1265 µM): 0.619
relative viability (H3255; first compound 0.4 µM): 0.637
relative viability (H3255; first compound 1.265 µM): 0.75
relative viability (H3255; first compound 4 µM): 0.63
relative viability (HCC-78; first compound 0.04 µM): 0.447
relative viability (HCC-78; first compound 0.1265 µM): 0.494
relative viability (HCC-78; first compound 0.4 µM): 0.559
relative viability (HCC-78; first compound 1.265 µM): 0.436
relative viability (HCC-78; first compound 4 µM): 0.493
relative viability (NCI-H522; first compound 0.04 µM): 0.565
relative viability (NCI-H522; first compound 0.1265 µM): 0.508
relative viability (NCI-H522; first compound 0.4 µM): 0.636
relative viability (NCI-H522; first compound 1.265 µM): 0.57
relative viability (NCI-H522; first compound 4 µM): 0.477
relative viability (HCC-827; first compound 0.04 µM): 0.378
relative viability (HCC-827; first compound 0.1265 µM): 0.423
relative viability (HCC-827; first compound 0.4 µM): 0.463
relative viability (HCC-827; first compound 1.265 µM): 0.429
relative viability (HCC-827; first compound 4 µM): 0.367
relative viability (NCI-H661; first compound 0.04 µM): 0.357
relative viability (NCI-H661; first compound 0.1265 µM): 0.363
relative viability (NCI-H661; first compound 0.4 µM): 0.331
relative viability (NCI-H661; first compound 1.265 µM): 0.357
relative viability (NCI-H661; first compound 4 µM): 0.366
relative viability (NCI-H2087; first compound 0.04 µM): 0.254
relative viability (NCI-H2087; first compound 0.1265 µM): 0.261
relative viability (NCI-H2087; first compound 0.4 µM): 0.295
relative viability (NCI-H2087; first compound 1.265 µM): 0.228
relative viability (NCI-H2087; first compound 4 µM): 0.253
relative viability (NCI-H2347; first compound 0.04 µM): 0.462
relative viability (NCI-H2347; first compound 0.1265 µM): 0.579
relative viability (NCI-H2347; first compound 0.4 µM): 0.678
relative viability (NCI-H2347; first compound 1.265 µM): 0.61
relative viability (NCI-H2347; first compound 4 µM): 0.55
relative viability (NCI-H322M; first compound 0.04 µM): 0.446
relative viability (NCI-H322M; first compound 0.1265 µM): 0.441
relative viability (NCI-H322M; first compound 0.4 µM): 0.553
relative viability (NCI-H322M; first compound 1.265 µM): 0.479
relative viability (NCI-H322M; first compound 4 µM): 0.463
relative viability (NCI-H650; first compound 0.04 µM): 0.81
relative viability (NCI-H650; first compound 0.1265 µM): 0.655
relative viability (NCI-H650; first compound 1.265 µM): 0.718
relative viability (NCI-H650; first compound 4 µM): 0.631
relative viability (LCLC-97TM1; first compound 0.04 µM): 0.301
relative viability (LCLC-97TM1; first compound 0.1265 µM): 0.196
relative viability (LCLC-97TM1; first compound 0.4 µM): 0.237
relative viability (LCLC-97TM1; first compound 1.265 µM): 0.21
relative viability (LCLC-97TM1; first compound 4 µM): 0.263
relative viability (NCI-H1915; first compound 0.04 µM): 0.457
relative viability (NCI-H1915; first compound 0.1265 µM): 0.413
relative viability (NCI-H1915; first compound 0.4 µM): 0.468
relative viability (NCI-H1915; first compound 1.265 µM): 0.385
relative viability (NCI-H1915; first compound 4 µM): 0.442
relative viability (NCI-H2405; first compound 0.04 µM): 0.798
relative viability (NCI-H2405; first compound 0.1265 µM): 0.726
relative viability (NCI-H2405; first compound 1.265 µM): 0.627
relative viability (NCI-H2405; first compound 4 µM): 0.663
relative viability (EPLC-272H; first compound 0.04 µM): 0.319
relative viability (EPLC-272H; first compound 0.1265 µM): 0.271
relative viability (EPLC-272H; first compound 0.4 µM): 0.411
relative viability (EPLC-272H; first compound 1.265 µM): 0.324
relative viability (EPLC-272H; first compound 4 µM): 0.249
relative viability (NCI-H520; first compound 0.04 µM): 0.443
relative viability (NCI-H520; first compound 0.1265 µM): 0.385
relative viability (NCI-H520; first compound 0.4 µM): 0.467
relative viability (NCI-H520; first compound 1.265 µM): 0.443
relative viability (NCI-H520; first compound 4 µM): 0.422
